# Experimental data reported in PubChem BioAssay (NCI).
#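 Results reflect a 48-hour exposure of cells in 96-well plates to compound at five concentrations. At the GI50, growth is halved. TGI denotes the concentration required for complete inhibition of growth.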
# Key:
# Assay in all cases: inhibition of tumour cell growth, NCI panel, 48 h
# [1] = test system: NCI-H23 lung
# [2] = test system: NCI-H460 lung
# [3] = test system: NCI-H522 lung
# [4] = test system: NCI/ADR-RES ovarian
# [5] = test system: OVCAR-3 ovarian
# [6] = test system: OVCAR-4 ovarian
# [7] = test system: OVCAR-5 ovarian
# [8] = test system: OVCAR-8 ovarian
# [9] = test system: PC-3 prostate
# [10] = test system: RPMI-8226 leukemia
# [11] = test system: RXF 393 renal
# [12] = test system: SF-268 CNS
# [13] = test system: SF-295 CNS
# [14] = test system: SF-539 CNS
# [15] = test system: SK-MEL-2 melanoma
# [16] = test system: SK-MEL-28 melanoma
# [17] = test system: SK-MEL-5 melanoma
# [18] = test system: SK-OV-3 ovarian
# [19] = test system: SN12C renal
# [20] = test system: SNB-19 CNS
# [21] = test system: SNB-75 CNS
# [22] = test system: SR leukemia
# [23] = test system: SW-620 colon
# [24] = test system: T-47D breast
# [25] = test system: TK-10 renal
# [26] = test system: U251 CNS
# [27] = test system: UACC-257 melanoma
# [28] = test system: UACC-62 melanoma
# [29] = test system: UO-31 renal
structure (smiles),measurement,setting,value
Cc1c(Cl)c(C)c(Cc2c(C)c(Cl)c(C)c(Cl)c2O)c(O)c1Cl,TGI,[1],8.79 µM
same,GI50,[2],2.43 µM
same,TGI,[2],10.2 µM
same,GI50,[3],1.84 µM
same,TGI,[3],11.2 µM
same,GI50,[4],3.09 µM
same,TGI,[4],10.2 µM
same,GI50,[5],3.28 µM
same,TGI,[5],11.2 µM
same,GI50,[6],2.99 µM
same,TGI,[6],9.97 µM
same,GI50,[7],3.67 µM
same,TGI,[7],14.4 µM
same,GI50,[8],3.73 µM
same,TGI,[8],21.6 µM
same,GI50,[9],1.99 µM
same,TGI,[9],11.8 µM
same,GI50,[10],1.18 µM
same,TGI,[10],6.66 µM
same,GI50,[11],2 µM
same,TGI,[11],6.89 µM
same,GI50,[12],3.4 µM
same,TGI,[12],15.8 µM
same,GI50,[13],2.05 µM
same,TGI,[13],5.08 µM
same,GI50,[14],3.01 µM
same,TGI,[14],11.4 µM
same,GI50,[15],2.85 µM
same,TGI,[15],9.73 µM
same,GI50,[16],3.14 µM
same,TGI,[16],14 µM
same,GI50,[17],1.28 µM
same,TGI,[17],3.33 µM
same,GI50,[18],2.68 µM
same,TGI,[18],9.46 µM
same,GI50,[19],2.46 µM
same,TGI,[19],11.8 µM
same,GI50,[20],3.15 µM
same,TGI,[20],13.8 µM
same,GI50,[21],2.27 µM
same,TGI,[21],7.93 µM
same,GI50,[22],3.4 µM
same,TGI,[22],12.4 µM
same,GI50,[23],3.14 µM
same,TGI,[23],13.5 µM
same,GI50,[24],2.11 µM
same,TGI,[24],8.76 µM
same,GI50,[25],3.79 µM
same,TGI,[25],17.2 µM
same,GI50,[26],3.1 µM
same,TGI,[26],10.9 µM
same,GI50,[27],3.52 µM
same,TGI,[27],14.9 µM
same,GI50,[28],1.81 µM
same,TGI,[28],6.84 µM
same,GI50,[29],3.09 µM
same,TGI,[29],11.6 µM
